Data taken from patent publication US10966426B2, “Herbicidal compositions comprising phenylpyrimidines” (BASF SE, priority 2016, dated 2021).
“And” between values parts separate entries of the source, which are not always exact repeats. Equal entries are not always repeated.

Assays:
Assay type in all cases: in vivo
Avena fatua = test: greenhouse post-emergence treatment, AVEFA; conditions: Avena fatua, 480 h, 20 DAT
Method: (§1) The culture containers used were plastic pots containing loamy sand with approximately 3.0% of humus as substrate. The seeds of the test plants were sown separately for each species.
(§2) To this end, the test plants were either sown directly, and grown in the same containers, or they were first grown separately as seedlings and transplanted into the test containers a few days prior to treatment.
(§3) Depending on the species, the plants were kept at 10-25° C. and 20-35° C., respectively.
(§4) The test period extended over 2 to 4 weeks. During this time, the plants were tended and their response to the individual treatments was evaluated.
(§5) Evaluation was carried out using a scale from 0 to 100. 100 means no emergence of the plants, or complete destruction of at least the above-ground parts, and 0 means no damage or normal course of growth. A good herbicidal activity is given at values of at least 70, and very good herbicidal activity is given at values of at least 85.
(§6) In the examples, the solvent used was water.
(§7) In the examples below, using the method of S. R. Colby (1967) “Calculating synergistic and antagonistic responses of herbicide combinations”, Weeds 15, p. […] E=X+Y−(X·Y/100) where X=effect in percent using herbicide A at an application rate a; • Y=effect in percent using herbicide B at application rate b; • E=expected effect (in %) of herbicide A+herbicide B at application rates a+b.

Alopecurus myosuroides = test: greenhouse post-emergence treatment, ALOMY; conditions: Alopecurus myosuroides, 480 h, 20 DAT, ALOMY
Method: as §1, §2, §3, §4, §5, §6, §7

Brachiaria decumbens = test: greenhouse post-emergence treatment, BRADC; conditions: 20 DAT; for % activity: BRADC
Method: as §1
(§8) For the post-emergence treatment, the test plants were grown to a plant height of from 3 to 15 cm, depending on the plant habit, and only then treated with the active compounds which had been suspended or emulsified in water. To this end, the test plants were either sown directly, and grown in the same containers, or they were first grown separately as seedlings and transplanted into the test containers a few days prior to treatment.
as §3, §4, §5
(§9) The respective stated components A and B, and if appropriate, C were formulated as a 10% by weight strength emulsion concentrate and, with addition of the amount of solvent system, introduced into the spray liquor used for applying the active compound. In the examples, the solvent used was water.
(§10) In the examples below, using the method of S. R. Colby (1967) “Calculating synergistic and antagonistic responses of herbicide combinations”, Weeds 15, p. 22ff., the value E, which is expected if the activity of the individual active compounds is only additive, was calculated. E=X+Y−(X·Y/100) where X=effect in percent using herbicide A at an application rate a; • Y=effect in percent using herbicide B at application rate b; • E=expected effect (in %) of herbicide A+herbicide B at application rates a+b.

Digitaria sanguinalis = test: greenhouse post-emergence treatment, DIGSA; conditions: 20 DAT; for % activity: DIGSA
Method: as §1, §2, §3, §4, §5, §6, §7

Bromus sterilis = test: greenhouse post-emergence treatment, BROST; conditions: 20 DAT; for % activity: BROST
Method: as §1, §2, §3, §4, §5, §6, §7

Lolium multiflorum = test: greenhouse post-emergence treatment, LOLMU; conditions: 20 DAT; for % activity: LOLMU
Method: as §1, §2, §3, §4, §5, §6, §7

Galium aparine = test: greenhouse post-emergence treatment, GALAP; conditions: GALAP, 20 DAT
Method: as §1, §8, §3, §4, §5, §9, §10

Papaver rhoeas = test: greenhouse post-emergence treatment, PAPRH; conditions: 20 DAT
Method: as §1, §8, §3, §4, §5, §9, §10

Setaria viridis = test: greenhouse post-emergence treatment, SETVI; conditions: 20 DAT; for % activity: SETVI
Method: as §1, §2, §3, §4, §5, §6, §7

Ambrosia elatior = test: greenhouse post-emergence treatment, AMBEL; conditions: 20 DAT
Method: as §1, §8, §3, §4, §5, §9, §10

Matricaria chamomilla = test: greenhouse post-emergence treatment, MATCH; conditions: MATCH, 20 DAT
Method: as §1, §8, §3, §4, §5, §9, §10

[1] = solo pyroxsulam (SC 30 g/l) 1.875 gai/ha
[2] = solo pyroxsulam (SC 30 g/l) 3.75 gai/ha
[3] = solo pyroxsulam (SC 30 g/l) 7.5 gai/ha

With `CCc1cc(C)cc(CC)c1-c1c(OC(=O)C(C)(C)C)n2n(c1=O)CCOCC2` [pinoxaden] the pest or weed control at […] (Avena fatua; solo, EC 50 g/l, AVEFA, 7.5 gai/ha) was 33%, the inhibition at […] (Alopecurus myosuroides; pinoxaden solo 7.5 gai/ha) was 75% and the inhibition at 60 g/ha (Alopecurus myosuroides; pinoxaden solo 60 gai/ha) was 94%. It also gave a pest or weed control at […] (Alopecurus myosuroides; solo, EC 50 g/l, 7.5 gai/ha) of 48%.
In the case of `COc1nc(C)nc(NC(=O)NS(=O)(=O)c2cc(I)ccc2C(=O)O)n1` [iodosulfuron], the inhibition at […] (Brachiaria decumbens; Urochloa decumbens, 480 h, iodosulfuron solo 2.5 gai/ha) is reported as 20%, the inhibition at 5 g/ha (Brachiaria decumbens; Urochloa decumbens, 480 h, iodosulfuron solo 5 gai/ha) is reported as 30% and the inhibition at 1.25 g/ha (Digitaria sanguinalis; Digitaria sanguinalis, 480 h, iodosulfuron solo 1.25 gai/ha) is reported as 0%. It also gave an inhibition at […] (Digitaria sanguinalis; Digitaria sanguinalis, 480 h, iodosulfuron solo 2.5 gai/ha) of 20%, an inhibition at 5 g/ha (Digitaria sanguinalis; Digitaria sanguinalis, 480 h, iodosulfuron solo 5 gai/ha) of 50% and an inhibition at 1.25 g/ha (Bromus sterilis; Bromus sterilis, 480 h, iodosulfuron solo 1.25 gai/ha) of 0%. It also gave an inhibition at […] (Bromus sterilis; Bromus sterilis, 480 h, iodosulfuron solo 2.5 gai/ha) of 0% and an inhibition at 5 g/ha (Bromus sterilis; Bromus sterilis, 480 h, iodosulfuron solo 5 gai/ha) of 0%.
For `CCS(=O)(=O)c1nc2ccccn2c1S(=O)(=O)NC(=O)Nc1nc(OC)cc(OC)n1` [sulfosulfuron], the inhibition at […] (Avena fatua; sulfosulfuron solo 1.5 gai/ha) was 0%, the inhibition at 3 g/ha (Avena fatua; sulfosulfuron solo 3 gai/ha) was 0% and the inhibition at […] (Brachiaria decumbens; Urochloa decumbens, 480 h, sulfosulfuron solo 1.5 gai/ha) was 20%. The inhibition at 12 g/ha (Brachiaria decumbens; Urochloa decumbens, 480 h, sulfosulfuron solo 12 gai/ha) was 80%, the inhibition at […] (Lolium multiflorum; Lolium multiflorum, 480 h, sulfosulfuron solo 1.5 gai/ha) was 0% and the inhibition at 3 g/ha (Lolium multiflorum; Lolium multiflorum, 480 h, sulfosulfuron solo 3 gai/ha) was 0%. The inhibition at 6 g/ha (Lolium multiflorum; Lolium multiflorum, 480 h, sulfosulfuron solo 6 gai/ha) was 10%, the inhibition at 12 g/ha (Lolium multiflorum; Lolium multiflorum, 480 h, sulfosulfuron solo 12 gai/ha) was 35% and the pest or weed control at […] (Galium aparine; Galium aparine, 480 h, solo sulfosulfuron (WG 80%) 1.5 gai/ha) was 65%. The pest or weed control at 3 g/ha (Galium aparine; Galium aparine, 480 h, solo sulfosulfuron (WG 80%) 3 gai/ha) was 85%, the inhibition at […] (Papaver rhoeas; Papaver rhoeas, 480 h, sulfosulfuron solo 1.5 gai/ha) was 25% and the inhibition at 3 g/ha (Papaver rhoeas; Papaver rhoeas, 480 h, sulfosulfuron solo 3 gai/ha) was 80%. The pest or weed control at […] (Papaver rhoeas; Papaver rhoeas, 480 h, PAPRH, solo sulfosulfuron (WG 80%) 1.5 gai/ha) was 25%, the inhibition at […] (Digitaria sanguinalis; Digitaria sanguinalis, 480 h, sulfosulfuron solo 1.5 gai/ha) was 0% and the inhibition at 3 g/ha (Digitaria sanguinalis; Digitaria sanguinalis, 480 h, sulfosulfuron solo 3 gai/ha) was 20%. For the same compound, the inhibition at 12 g/ha (Digitaria sanguinalis; Digitaria sanguinalis, 480 h, sulfosulfuron solo 12 gai/ha) was 65%, the inhibition at […] (Setaria viridis; Setaria viridis, 480 h, sulfosulfuron solo 1.5 gai/ha) was 50% and the inhibition at 6 g/ha (Setaria viridis; Setaria viridis, 480 h, sulfosulfuron solo 6 gai/ha) was 65%. The inhibition at 12 g/ha (Setaria viridis; Setaria viridis, 480 h, sulfosulfuron solo 12 gai/ha) was 75%, the inhibition at […] (Ambrosia elatior; Ambrosia artemisiifolia, 480 h, sulfosulfuron solo 1.5 gai/ha) was 70% and the inhibition at […] (Bromus sterilis; Bromus sterilis, 480 h, sulfosulfuron solo 1.5 gai/ha) was 0%. It also gave an inhibition at 3 g/ha (Bromus sterilis; Bromus sterilis, 480 h, sulfosulfuron solo 3 gai/ha) of 50% and an inhibition at 12 g/ha (Bromus sterilis; Bromus sterilis, 480 h, sulfosulfuron solo 12 gai/ha) of 70%.
`COc1cc(OC)n2nc(NS(=O)(=O)c3c(C(F)(F)F)ccnc3OC)nc2n1` [pyroxsulam] was tested, and the “% activity” value (Brachiaria decumbens; [1]) was 20%, the “% activity” value (Brachiaria decumbens; pyroxsulam solo 1.875 gai/ha) was 20% and the “% activity” value (Brachiaria decumbens; pyroxsulam solo 3.75 gai/ha) was 75%. For the same compound, the “% activity” value (Lolium multiflorum; pyroxsulam solo 1.875 gai/ha) was 60% and 80%, the “% activity” value (Lolium multiflorum; pyroxsulam solo 3.75 gai/ha) was 65% and the “% activity” value (Lolium multiflorum; pyroxsulam solo 7.5 gai/ha) was 80%. For the same compound, the “% activity” value (Galium aparine; [1]) was 60%, the “% activity” value (Galium aparine; [2]) was 65% and the “% activity” value (Galium aparine; [3]) was 75%. For the same compound, the “% activity” value (Galium aparine; pyroxsulam solo 1.875 gai/ha) was 60%, the “% activity” value (Galium aparine; pyroxsulam solo 3.75 gai/ha) was 65% and the “% activity” value (Galium aparine; pyroxsulam solo 7.5 gai/ha) was 75%. For the same compound, the “% activity” value (Galium aparine; pyroxsulam solo 15 gai/ha) was 90%, the “% activity” value (Papaver rhoeas; PAPRH, solo pyroxsulam (SC 30 g/l) 1.875 gai/ha) was 0% and the “% activity” value (Papaver rhoeas; PAPRH, solo pyroxsulam (SC 30 g/l) 3.75 gai/ha) was 0%. The “% activity” value (Papaver rhoeas; PAPRH, solo pyroxsulam (SC 30 g/l) 7.5 gai/ha) was 30%, the “% activity” value (Papaver rhoeas; PAPRH, solo pyroxsulam (SC 30 g/l) 15 gai/ha) was 70% and the “% activity” value (Papaver rhoeas; pyroxsulam solo 1.875 gai/ha, PAPRH) was 0%. The “% activity” value (Papaver rhoeas; pyroxsulam solo 3.75 gai/ha, PAPRH) was 0%, the “% activity” value (Papaver rhoeas; pyroxsulam solo 7.5 gai/ha, PAPRH) was 30% and the “% activity” value (Papaver rhoeas; pyroxsulam solo 15 gai/ha, PAPRH) was 70%. The “% activity” value (Digitaria sanguinalis; [3]) was 80%, the “% activity” value (Digitaria sanguinalis; pyroxsulam solo 1.875 gai/ha) was 65% and the “% activity” value (Digitaria sanguinalis; pyroxsulam solo 3.75 gai/ha) was 75%. For the same compound, the “% activity” value (Digitaria sanguinalis; pyroxsulam solo 7.5 gai/ha) was 80%, the “% activity” value (Setaria viridis; [1]) was 75% and the “% activity” value (Setaria viridis; pyroxsulam solo 1.875 gai/ha) was 75%. For the same compound, the “% activity” value (Matricaria chamomilla; [1]) was 30%, the “% activity” value (Matricaria chamomilla; [2]) was 60% and the “% activity” value (Matricaria chamomilla; solo pyroxsulam (SC 30 g/l) 15 gai/ha) was 80%. The “% activity” value (Matricaria chamomilla; pyroxsulam solo 1.875 gai/ha) was 30%, the “% activity” value (Matricaria chamomilla; pyroxsulam solo 3.75 gai/ha) was 60% and the “% activity” value (Matricaria chamomilla; pyroxsulam solo 15 gai/ha) was 80%. The “% activity” value (Ambrosia elatior; pyroxsulam solo 1.875 gai/ha, AMBEL) was 70%, the “% activity” value (Bromus sterilis; [1]) was 60% and the “% activity” value (Bromus sterilis; pyroxsulam solo 1.875 gai/ha) was 60%. For the same compound, the “% activity” value (Bromus sterilis; pyroxsulam solo 3.75 gai/ha) was 70% and the “% activity” value (Bromus sterilis; pyroxsulam solo 7.5 gai/ha) was 75%.
